1 compound from ChEMBL document CHEMBL4371004, “A-C Estrogens as Potent and Selective Estrogen Receptor-Beta Agonists (SERBAs) to Enhance Memory Consolidation under Low-Estrogen Conditions” (J Med Chem, 2018) can be followed below.

Structures are written as SMILES. pEC50: −log10 of the molar value. The source made the active and inactive calls. No cut-off for these calls is given here.

Series [1] deals with T1, Glucocorticoid receptor (Homo sapiens) (UniProt P04150).
T1 sequence (whole entry): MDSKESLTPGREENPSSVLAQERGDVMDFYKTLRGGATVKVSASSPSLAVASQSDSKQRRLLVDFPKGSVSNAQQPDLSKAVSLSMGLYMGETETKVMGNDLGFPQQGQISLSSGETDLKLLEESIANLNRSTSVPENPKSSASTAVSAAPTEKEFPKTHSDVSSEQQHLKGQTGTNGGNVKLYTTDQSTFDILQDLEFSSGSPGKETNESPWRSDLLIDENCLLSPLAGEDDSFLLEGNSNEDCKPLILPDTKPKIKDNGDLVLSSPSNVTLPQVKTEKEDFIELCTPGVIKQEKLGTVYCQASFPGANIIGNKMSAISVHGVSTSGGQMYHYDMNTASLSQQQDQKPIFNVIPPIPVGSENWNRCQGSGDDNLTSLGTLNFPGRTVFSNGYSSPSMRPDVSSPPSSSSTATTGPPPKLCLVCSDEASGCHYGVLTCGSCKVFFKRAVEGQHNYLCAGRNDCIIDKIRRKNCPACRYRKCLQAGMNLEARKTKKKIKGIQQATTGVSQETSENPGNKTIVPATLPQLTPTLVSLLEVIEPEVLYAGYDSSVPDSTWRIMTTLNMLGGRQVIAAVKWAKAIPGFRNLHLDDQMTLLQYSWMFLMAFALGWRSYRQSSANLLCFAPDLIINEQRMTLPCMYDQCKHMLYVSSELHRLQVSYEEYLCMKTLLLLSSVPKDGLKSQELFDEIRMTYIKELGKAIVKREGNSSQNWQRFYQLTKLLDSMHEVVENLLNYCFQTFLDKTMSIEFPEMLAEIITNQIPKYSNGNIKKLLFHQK
Kind of series: Agonist activity at GAL4 DNA binding domain fused glucocorticoid receptor ligand binding domain (unknown origin) at 0.25 to 25 uM by FRET-based assay.

The subject of series [2] is Mus musculus. Nature of the series: Memory enhancement effect in C57BL/6 mouse assessed as time spent with moved object at 1 ng administered as dorsal hippocampal infusion by novel object recognition test. The series is classed as functional.
The test system of series [3] is Mus musculus. Kind of series: Memory enhancement effect in C57BL/6 mouse assessed as time spent with novel object at 0.5 mg/kg, po administered via gavage by novel object recognition test. The format is functional.
Series [4] deals with Mus musculus. Nature of the series: Memory enhancement effect in C57BL/6 mouse assessed as time spent with moved object at 100 pg administered as dorsal hippocampal infusion by novel object recognition test. The format is functional.
The target of series [5] is T2, Thyroid hormone receptor beta (Homo sapiens) (UniProt P10828).
T2 sequence (whole entry): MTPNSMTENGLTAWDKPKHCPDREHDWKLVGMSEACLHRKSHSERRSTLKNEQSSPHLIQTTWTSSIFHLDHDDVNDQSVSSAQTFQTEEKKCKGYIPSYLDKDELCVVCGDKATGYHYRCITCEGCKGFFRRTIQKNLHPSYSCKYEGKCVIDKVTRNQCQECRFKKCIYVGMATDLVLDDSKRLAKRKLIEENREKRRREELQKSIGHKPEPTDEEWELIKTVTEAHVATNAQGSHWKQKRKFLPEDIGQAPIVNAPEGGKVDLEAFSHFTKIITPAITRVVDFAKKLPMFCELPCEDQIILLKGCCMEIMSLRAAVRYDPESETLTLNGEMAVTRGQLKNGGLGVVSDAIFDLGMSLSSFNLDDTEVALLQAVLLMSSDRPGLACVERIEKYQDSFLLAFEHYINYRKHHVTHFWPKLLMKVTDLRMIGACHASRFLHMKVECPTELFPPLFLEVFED
Kind of series: Agonist activity at GAL4 DNA binding domain fused thyroid hormone receptor beta (unknown origin) at 0.25 to 25 uM by FRET-based assay.

For a further series, the target named is Cytochrome P450 3A4 (Homo sapiens, UniProt P08684).
Cytochrome P450 3A4, sequence (P08684 whole entry): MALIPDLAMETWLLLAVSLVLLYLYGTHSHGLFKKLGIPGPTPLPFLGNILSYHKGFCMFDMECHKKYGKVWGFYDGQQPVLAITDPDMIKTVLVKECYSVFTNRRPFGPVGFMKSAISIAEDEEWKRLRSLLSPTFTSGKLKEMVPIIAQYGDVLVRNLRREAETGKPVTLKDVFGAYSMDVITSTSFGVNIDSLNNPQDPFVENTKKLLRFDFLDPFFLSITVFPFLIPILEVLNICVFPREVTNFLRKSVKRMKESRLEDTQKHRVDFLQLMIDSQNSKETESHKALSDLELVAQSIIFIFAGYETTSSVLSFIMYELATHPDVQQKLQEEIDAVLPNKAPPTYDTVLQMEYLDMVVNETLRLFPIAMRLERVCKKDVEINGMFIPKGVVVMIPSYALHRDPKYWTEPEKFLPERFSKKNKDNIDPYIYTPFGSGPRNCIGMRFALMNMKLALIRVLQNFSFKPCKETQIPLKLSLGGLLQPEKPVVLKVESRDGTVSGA
Series [6] concerns Mus musculus. Nature of the series: Memory enhancement effect in C57BL/6 mouse assessed as time spent with novel object at 5 mg/kg, po administered via gavage by novel object recognition test. The format is functional.
For series [7], the system named is Mus musculus. Nature of the series: Memory enhancement effect in C57BL/6 mouse assessed as time spent with novel object at 0.5 mg/kg, ip by novel object recognition test. The format is functional.
The test system of series [8] is Mus musculus. Kind of series: Memory enhancement effect in C57BL/6 mouse assessed as time spent with moved object at 0.5 mg/kg, ip by novel object recognition test. The series is classed as functional.
The next series has as its target T3, Cytochrome P450 1A2 (Homo sapiens, UniProt P05177).
T3 sequence (P05177 whole entry): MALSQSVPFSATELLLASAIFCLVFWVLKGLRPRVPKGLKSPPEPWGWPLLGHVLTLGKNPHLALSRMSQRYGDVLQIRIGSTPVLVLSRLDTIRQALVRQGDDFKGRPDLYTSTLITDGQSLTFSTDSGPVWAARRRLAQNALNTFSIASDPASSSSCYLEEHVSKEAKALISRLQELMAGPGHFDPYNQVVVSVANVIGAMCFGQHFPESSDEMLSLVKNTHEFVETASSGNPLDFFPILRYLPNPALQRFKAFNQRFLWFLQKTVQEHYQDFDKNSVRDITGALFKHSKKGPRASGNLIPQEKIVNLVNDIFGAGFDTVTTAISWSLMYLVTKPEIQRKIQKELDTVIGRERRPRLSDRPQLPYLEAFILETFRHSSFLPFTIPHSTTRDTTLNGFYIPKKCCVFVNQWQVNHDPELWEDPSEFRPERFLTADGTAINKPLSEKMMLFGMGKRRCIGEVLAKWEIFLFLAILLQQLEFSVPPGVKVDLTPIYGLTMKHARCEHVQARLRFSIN
Kind of series: Inhibition of human recombinant CYP1A2 up to 100 uM preincubated for 10 mins followed by NADPH addition and measured after 10 to 30 mins by P450-Glo luminescence assay. The series is classed as ADME. The note with it: recombinant enzyme.

Description for Cytochrome P450 3A4: Inhibition of human recombinant CYP3A4 preincubated for 10 mins followed by NADPH addition and measured after 10 to 30 mins by P450-Glo luminescence assay

Turning to `OC[C@H]1CC[C@H](c2ccc(O)cc2)CC1`, the result in [1] and in series [5] was inactive. Moreover, the Time with Mus musculus [2] is on record as 3.4 s; with Mus musculus [3], 5.3 s; with Mus musculus [4], 10.3 s; in the series on Mus musculus [6], 2.36 s; in the series on Mus musculus [7], 4.17 s; with Mus musculus [8] it was 3.93 s. The pEC50 at Cytochrome P450 3A4 was 4.05. On Cytochrome P450 1A2, the “inhibition (INH)” value is on record as “Not Active”.
